Where a SMILES comes first, the peptide text is derived from it. Side-chain parts run from the residue outwards. The star is where a group is joined. Cbz = O=C(OCc1ccccc1)*; Bz = O=C(c1ccccc1)*
Tests used:
MDA-MB-231 cells = experiment: Cell growth assay (AlamarBlue), MDA-MB-231; type: cell-based, human; conditions: Homo sapiens, MDA-MB-231, 72 h, 72 h of treatment
SIRT2 = molecular target: T1, SIRT2 (Homo sapiens, UniProt Q8IXJ6); experiment: Fluor de Lys SIRT2 assay; conditions: for inhibition at 10 µM: read-out: % inhibition at 10 μM SIRT2; for inhibition at 1 µM: read-out: % inhibition at 1 μM SIRT2
T1 sequence (Q8IXJ6 1-389): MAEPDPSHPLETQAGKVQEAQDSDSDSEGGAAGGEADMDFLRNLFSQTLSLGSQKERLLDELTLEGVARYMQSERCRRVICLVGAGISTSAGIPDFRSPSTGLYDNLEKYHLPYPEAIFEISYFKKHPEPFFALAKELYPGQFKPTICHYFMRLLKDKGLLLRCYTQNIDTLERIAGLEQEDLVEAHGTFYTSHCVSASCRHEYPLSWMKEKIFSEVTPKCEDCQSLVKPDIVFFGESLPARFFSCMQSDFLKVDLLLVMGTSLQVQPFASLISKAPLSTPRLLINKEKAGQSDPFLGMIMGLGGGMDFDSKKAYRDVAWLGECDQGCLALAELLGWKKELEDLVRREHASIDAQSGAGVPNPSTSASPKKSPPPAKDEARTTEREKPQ

SIRT1 = molecular target: T2, SIRT1 (Homo sapiens, UniProt Q96EB6); experiment: Fluor de Lys SIRT1 assay; conditions: for inhibition at 10 µM: read-out: % inhibition at 10 μM SIRT1; for inhibition at 50 µM: read-out: % inhibition at 50 μM SIRT1
T2 sequence (Q96EB6 1-747): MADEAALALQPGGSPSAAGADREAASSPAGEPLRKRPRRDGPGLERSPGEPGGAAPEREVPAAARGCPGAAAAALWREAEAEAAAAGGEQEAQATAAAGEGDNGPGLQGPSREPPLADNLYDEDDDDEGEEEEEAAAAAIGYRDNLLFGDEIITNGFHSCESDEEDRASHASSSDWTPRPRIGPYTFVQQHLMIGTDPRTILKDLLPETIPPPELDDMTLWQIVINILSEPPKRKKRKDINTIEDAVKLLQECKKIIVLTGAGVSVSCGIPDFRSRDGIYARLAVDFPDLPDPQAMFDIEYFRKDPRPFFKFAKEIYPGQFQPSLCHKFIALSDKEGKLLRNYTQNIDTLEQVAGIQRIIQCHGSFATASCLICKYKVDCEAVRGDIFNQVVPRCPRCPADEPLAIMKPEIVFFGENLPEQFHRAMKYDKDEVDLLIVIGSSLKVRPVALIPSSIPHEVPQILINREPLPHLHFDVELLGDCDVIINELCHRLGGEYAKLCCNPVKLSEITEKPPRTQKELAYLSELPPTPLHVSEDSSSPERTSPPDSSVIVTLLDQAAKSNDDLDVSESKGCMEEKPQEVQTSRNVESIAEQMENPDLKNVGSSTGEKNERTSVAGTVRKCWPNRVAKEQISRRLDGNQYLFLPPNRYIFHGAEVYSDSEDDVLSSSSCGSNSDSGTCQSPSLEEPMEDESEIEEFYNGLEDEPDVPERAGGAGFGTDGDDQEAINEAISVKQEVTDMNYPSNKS

SIRT5 = molecular target: T3, SIRT5 (Homo sapiens, UniProt Q9NXA8); experiment: Fluor de Lys SIRT5 assay; conditions: for inhibition at 10 µM: read-out: % inhibition at 10 μM SIRT5; for inhibition at 50 µM: read-out: % inhibition at 50 μM SIRT5
T3 sequence (Q9NXA8 37-310): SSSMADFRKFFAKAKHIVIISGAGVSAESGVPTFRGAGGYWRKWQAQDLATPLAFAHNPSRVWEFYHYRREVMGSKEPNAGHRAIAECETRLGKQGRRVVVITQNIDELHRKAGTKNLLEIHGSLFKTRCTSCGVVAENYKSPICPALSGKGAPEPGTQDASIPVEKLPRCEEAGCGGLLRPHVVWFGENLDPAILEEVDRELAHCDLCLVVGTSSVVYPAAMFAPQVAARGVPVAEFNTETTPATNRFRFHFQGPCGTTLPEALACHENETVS

SIRT3 = molecular target: T4, SIRT3 (Homo sapiens, UniProt Q9NTG7); experiment: Fluor de Lys SIRT3 assay; conditions: for inhibition at 10 µM: read-out: % inhibition at 10 μM SIRT3; for inhibition at 50 µM: read-out: % inhibition at 50 μM SIRT3
T4 sequence (Q9NTG7 1-399): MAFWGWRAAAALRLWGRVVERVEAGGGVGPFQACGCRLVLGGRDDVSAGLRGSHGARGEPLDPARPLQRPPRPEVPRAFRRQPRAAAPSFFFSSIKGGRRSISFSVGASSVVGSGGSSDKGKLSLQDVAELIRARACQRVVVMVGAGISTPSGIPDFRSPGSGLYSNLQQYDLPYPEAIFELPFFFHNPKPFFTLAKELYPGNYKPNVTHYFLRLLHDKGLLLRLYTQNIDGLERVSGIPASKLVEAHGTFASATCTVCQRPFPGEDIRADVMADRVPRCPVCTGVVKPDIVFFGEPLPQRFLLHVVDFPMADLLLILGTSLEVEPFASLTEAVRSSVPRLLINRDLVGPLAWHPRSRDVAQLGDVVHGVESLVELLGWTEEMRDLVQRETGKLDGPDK

`NC(=O)C1CCCc2c1[nH]c1ccc(Cl)cc21` (stereo not drawn) [Compound 9, EX-527, reference compound] was tested. Which GI50 (MDA-MB-231 cells) did it give?
Its GI50 is over 30 µM.

And the inhibition at 10 µM (SIRT2)?
The inhibition at 10 µM was 79 ± 1.3%.

And the inhibition at 10 µM (SIRT1)?
The inhibition at 10 µM was 97 ± 0.13%.

And the inhibition at 10 µM (SIRT5)?
The inhibition at 10 µM was 0%.

And the inhibition at 50 µM (SIRT5)?
Its inhibition at 50 µM is 0%.

With `CCCCCNC(=S)CNC(=O)c1ccccc1Nc1cccc(OCCc2ccccc2)c1` [Compound 42] as the compound, how does the IC50 (SIRT2) read?
Its IC50 is 19.3 ± 3.1 µM.

What about the inhibition at 10 µM (SIRT2) of the same compound?
Its inhibition at 10 µM is 40 ± 3.4%.

And the inhibition at 10 µM (SIRT1)?
Its inhibition at 10 µM is 0%.

And the inhibition at 50 µM (SIRT1)?
Its inhibition at 50 µM is 11%.

What about the inhibition at 10 µM (SIRT5) of the same compound?
Its inhibition at 10 µM is 0%.

And the inhibition at 50 µM (SIRT5)?
Its inhibition at 50 µM is 3%.

What about the inhibition at 10 µM (SIRT3) of the same compound?
The inhibition at 10 µM was 0%.

What about the inhibition at 50 µM (SIRT3) of the same compound?
Its inhibition at 50 µM is 2%.

What does the source list for `C[C@H](NC(=O)[C@H](CCCCNC(=O)CNC(=O)c1ccccc1)NC(=O)OCc1ccccc1)C(N)=O` [Compound 28] (Cbz-Lys([Gly-Bz])-Ala-NH2)?
SIRT2 inhibition (in words) (SIRT2): no SIRT2 inhibition; inhibition at 10 µM (SIRT2): 8 ± 3.3%; inhibition at 50 µM (SIRT2; read-out: % inhibition at 50 μM SIRT2): 18%; inhibition at 10 µM (SIRT1): 3.5 ± 1%; inhibition at 50 µM (SIRT1): 1%; inhibition at 10 µM (SIRT5): 0%; inhibition at 50 µM (SIRT5): 0%; inhibition at 10 µM (SIRT3): 1 ± 1.8%; inhibition at 50 µM (SIRT3): 0%

With `N#C/C(=C\c1ccc(-c2cc(Cl)ccc2Cl)o1)C(=O)Nc1cccc2ncccc12` [Compound 7, AGK2, reference compound] as the compound, how does the inhibition at 10 µM (SIRT2) read?
Its inhibition at 10 µM is 45 ± 2.9%.

What about the inhibition at 10 µM (SIRT1) of the same compound?
Its inhibition at 10 µM is 0.9 ± 0.62%.

What about the inhibition at 50 µM (SIRT1) of the same compound?
Its inhibition at 50 µM is 14%.

What about the inhibition at 10 µM (SIRT5) of the same compound?
The inhibition at 10 µM was 0%.

And the inhibition at 50 µM (SIRT5)?
The inhibition at 50 µM was 3%.

Which results are given for `CC(=S)NCCCC[C@H](NC(=O)OCc1ccccc1)C(=O)N[C@@H](C)C(N)=O` [UKU 10363, reference compound]?
IC50 (SIRT2): 0.59 ± 0.13 µM; inhibition at 1 µM (SIRT2): 56 ± 1.9%; inhibition at 10 µM (SIRT2): 99 ± 3.2%; IC50 (SIRT1): 0.18 ± 0.013 µM; inhibition at 1 µM (SIRT1; read-out: % inhibition at 1 μM SIRT1): 83 ± 0.4%; inhibition at 10 µM (SIRT1): 97 ± 0.04%; inhibition at 10 µM (SIRT5): 3 ± 3.9%; inhibition at 50 µM (SIRT5): 6%; IC50 (SIRT3): 4.39 ± 0.28 µM; inhibition at 1 µM (SIRT3; read-out: % inhibition at 1 μM SIRT3): 19 ± 0.78%; inhibition at 10 µM (SIRT3): 65 ± 0.23%

With `NC(=O)CNC(=O)c1ccccc1Nc1cccc(OCCc2ccccc2)c1` [Compound 17] as the compound, how does the IC50 (SIRT2) read?
The IC50 was 3.6 ± 0.03 µM.

And the inhibition at 1 µM (SIRT2)?
Its inhibition at 1 µM is 19 ± 0.63%.

And the inhibition at 10 µM (SIRT2)?
Its inhibition at 10 µM is 85 ± 0.47%.

What about the inhibition at 10 µM (SIRT1) of the same compound?
Its inhibition at 10 µM is 10 ± 1.9%.

And the inhibition at 50 µM (SIRT1)?
Its inhibition at 50 µM is 18%.

And the inhibition at 10 µM (SIRT5)?
Its inhibition at 10 µM is 0%.

What about the inhibition at 50 µM (SIRT5) of the same compound?
The inhibition at 50 µM was 4%.

What about the inhibition at 10 µM (SIRT3) of the same compound?
The inhibition at 10 µM was 10 ± 0.95%.

What about the inhibition at 50 µM (SIRT3) of the same compound?
The inhibition at 50 µM was 13%.

With `O=C(Nc1cccc([N+](=O)[O-])c1)c1cccc(S(=O)(=O)N2CCCCCC2)c1` [Compound 8, AK-1, reference compound] as the compound, how does the inhibition at 10 µM (SIRT2) read?
The inhibition at 10 µM was 31 ± 0.42%.

What about the inhibition at 10 µM (SIRT1) of the same compound?
Its inhibition at 10 µM is 6.2 ± 0.85%.

And the inhibition at 50 µM (SIRT1)?
Its inhibition at 50 µM is 25%.

What about the inhibition at 10 µM (SIRT5) of the same compound?
Its inhibition at 10 µM is 0%.

What about the inhibition at 50 µM (SIRT5) of the same compound?
Its inhibition at 50 µM is 0%.

What about the inhibition at 10 µM (SIRT3) of the same compound?
The inhibition at 10 µM was 0%.

And the inhibition at 50 µM (SIRT3)?
The inhibition at 50 µM was 0%.

Reference: paper PMC5628579, “Potent mechanism-based sirtuin-2-selective inhibition by an in situ-generated occupant of the substrate-binding site, “selectivity pocket” and NAD^+-binding site” (Chemical Science, 2017)
